Experimental data reported in patent publication US20240158440A1, “PEPTIDE AND COMPOSITION CONTAINING PEPTIDE AS ACTIVE INGREDIENT” (MORINAGA MILK INDUSTRY CO., LTD., priority 2021, published 2024).
No end group written: not given here.

Assays:
Type in all cases: in vivo
male ddy mice [1] = assay: Tail suspension test; settings: for Immobile Time: control 99.0; for Immobile Time (second): 30 minutes before the test, control 88.9, *P<0.05 vs Control
Method: A tail suspension test used for screening an antidepressant was conducted. When a mouse is hung by fixing its tail and thus put under inescapable conditions, it is believed that the mouse first tries to escape and moves but becomes immobile by despair with the time. On the other hand, in a mouse treated with an antidepressant, the time of escaping behavior increases, and the immobile time decreases. That is, when the immobile time decreases, the drug is evaluated to have an antidepressive effect.
The WPH synthesized in Production Example 1 was administered at a dose of 1 mg, 10 mg or 100 mg per 1 kg body weight to male ddy mice 30 minutes before the test, and 30 minutes later, the mice were hung by fixing their tails to conduct the test (WPH administration group, n=9-11). For six minutes after starting, the time with immobile behavior was recorded.
Moreover, as a control, the same test was conducted using male ddy mice to which the peptide as the test substance was not administered (control group, n=9-11).
From the obtained results, the times (second) with immobile behavior were calculated as an indicator of the antidepressive activity.
The peptide NLPPLT synthesized in Production Example 2 was administered at a dose of 10 μg or 30 μg per 1 kg body weight to male ddy mice 30 minutes before the test, and 30 minutes later, the mice were hung by fixing their tails to conduct the test (peptide NLPPLT administration group, n=5-6). For six minutes after starting, the time with immobile behavior was recorded.
Moreover, as a control, the same test was conducted using male ddy mice to which the peptide as the test substance was not administered (control group, n=5-6). […]

male ddy mice [2] = assay: Elevated plus maze test
Description: An elevated plus maze having a plus shape in which two flat plates (arms) of 25 cm×5 cm were crossed was placed at a height of 50 cm from the floor. One type of the arms is closed arms having transparent walls with a height of 15 cm, and a mouse can walk safely without fear of falling. The other arms are open arms without such walls, and the sides are open. […] Through anxiolytic treatment of a mouse, however, the time of stay in the open arms tends to be longer. Thus, in a confirmation test of an anxiolytic action, the anxiolytic activity becomes higher as the time of stay of a mouse in the open arms is longer or as the number of entries is higher. […]
The peptide NLPPLT synthesized in Production Example 2 was administered at a dose of 3 μg or 10 μg per 1 kg body weight to male ddy mice 30 minutes before the test, and 30 minutes later, each mouse was put on the central platform where the open arms crossed the closed arms to conduct the test (peptide NLPPLT administration group, n=6). For five minutes after starting, the total time of stay of the mouse on the open arms (time in open arms), the number of entries into the open arms (visit to open arms) and the total number of entries into the arms (total visits) were recorded.
Moreover, as a control, the same test was conducted using male ddy mice to which the peptide as the test substance was not administered (control group, n=6).
Furthermore, to examine the mechanism of action, the same test was conducted using male ddy mice to which 10 mg/kg of an antagonist of the serotonin 5-HT1A receptor, WAY100135 (manufactured by Tocris Bioscience) was orally administered in addition to 10 μg/kg body weight of the peptide NLPPLT synthesized in Production Example 2 (peptide NLPPLT+serotonin antagonist administration group, n=5).
From the obtained results, the proportions (%) of the time of stay on the open arms and the proportions (%) of the number of entries into the open arms were calculated as indicators of the anxiolytic activity, and the differences with a statistical significance were examined by the Tukey-Kramer method.

male ddy mice [3] = assay: Open field test; settings: for Proportion (%) of Time of Stay in Center Circle / Proportion (%) of Number of Entries into Center Circle: 30 minutes before the test; for Proportion (%) of Time of Stay in Center Circle: control 0.3; for Proportion (%) of Number of Entries into Center Circle: control 1.5
Method: An open field test was conducted as a behavior test used for screening an antianxiety drug. […] […] Here, in this open field test, a circular field consisting of a plurality of concentric circles with a common center with different radii was used. The circle closest to the center in the field is considered as the center of the field, and the time in which a mouse placed in the center of the field stays in the center of the field is measured.
The peptide NLPPLT synthesized in Production Example 2 was administered at a dose of 10 μg, 30 μg or 100 μg per 1 kg body weight to male ddy mice 30 minutes before the test, and 30 minutes later, each mouse was put in the center of the field to conduct the test (peptide NLPPLT administration group, n=5). For five minutes after starting, the time of stay was recorded.
Moreover, as a control, the same test was conducted using male ddy mice to which the peptide as the test substance was not administered (control group, n=5-6).
From the obtained results, the proportions (%) of the time of stay were calculated as an indicator of the anxiolytic activity.

## NS(=O)(=O)c1cccc2c1c([N+](=O)[O-])cc1nc(O)c(O)nc12 [AMPA Antagonist, NBQX, reference compound]
Male ddy mice [1]; Table 7, NBQX 10 mg/kg (i.p.) alone
  Immobile Time: 69.8 s

## NLPPLT [Peptide NLPPLT]
Male ddy mice [1]; Table 6, 0.01 mg/kg
  Immobile Time (second): 15.7* second
Male ddy mice [1]; Table 6, 0.03 mg/kg
  Immobile Time (second): 27.1* second
Male ddy mice [1]; Table 7, NLPPLT 0.01 mg/kg (p.o.) alone
  Immobile Time: 23.0 s
Male ddy mice [1]; conclusion in words
  Antidepressive activity (time with immobile behavior compared to control): has an antidepressive activity
Male ddy mice [2]; Table 2, peptide alone (dose not given; 10 μg/kg), control 20.9
  Proportion (%) of Time of Stay on Open Arms: 33.1%
Male ddy mice [2]; Table 2, peptide alone (dose not given; 10 μg/kg), control 26.7
  Proportion (%) of Number of Entries into Open Arms: 35.1%
Male ddy mice [2]; Table 3, 3 μg/kg, 30 minutes before the test, control 15.4
  Proportion (%) of Time of Stay on Open Arms: 19.9%
Male ddy mice [2]; Table 3, 3 μg/kg, 30 minutes before the test, control 22.7
  Proportion (%) of Number of Entries into Open Arms: 23.4%
Male ddy mice [2]; Table 3, 10 μg/kg, 30 minutes before the test, control 15.4
  Proportion (%) of Time of Stay on Open Arms: 24.4%
Male ddy mice [2]; Table 3, 10 μg/kg, 30 minutes before the test, control 22.7
  Proportion (%) of Number of Entries into Open Arms: 31.7%
Male ddy mice [2]; conclusion in words
  Anxiolytic activity (time of stay on / entries into open arms compared to control): has an anxiolytic activity
Male ddy mice [3]; 0.01 mg/kg
  Proportion (%) of Time of Stay in Center Circle: 0.6%
  Proportion (%) of Number of Entries into Center Circle: 1.7%
Male ddy mice [3]; 0.03 mg/kg
  Proportion (%) of Time of Stay in Center Circle: 0.7%
  Proportion (%) of Number of Entries into Center Circle: 1.6%
Male ddy mice [3]; 0.1 mg/kg
  Proportion (%) of Time of Stay in Center Circle: 0.8%
  Proportion (%) of Number of Entries into Center Circle: 2.1%
Male ddy mice [3]; conclusion in words
  Anxiolytic activity (time of stay in center compared to control): has an anxiolytic activity
